Columns and labels:
Assay type in all cases: physicochemical
[1] = Dye solubility when preparing the coating composition for dye-donating layer formation (ink sheet); parameters: key: A (soluble easily); B (soluble); C (soluble but hardly); details: dye in coating composition with polyvinylbutyral resin, methyl ethyl ketone/toluene (1/1); three ranks
From the text: A polyester film (Lumirror, Toray's trade name) having a thickness of 6.0 μm and coated with a thermoplastic acrylic resin (thickness, 1 μm) for heat-resistant lubrication on the back thereof was used as a support. The following coating composition for dye-donating layer formation was applied onto the surface of the support film, in a mode of wire bar coating, thereby forming a coating layer having a dry thickness of 1 μm thereon to give an ink sheet 1.
(Coating Composition for Dye-donating Layer Formation)
Next, ink sheets 2 to 5 of the invention and comparative ink sheets 6 to 8 were formed in the same manner as that for the ink sheet 1 but using the dye shown in Table 2 below in place of Compound (1). In this process, the dye solubility was evaluated in three ranks; A (soluble easily), B (soluble), C (soluble but hardly).

[2] = Maximum absorption wavelength of the absorption spectrum in ethyl acetate solution; details: for Maximum Absorption Wavelength: concentration 1×10^−6 mol/L, optical path length 10 mm; for λmax: stated in the production example
From the text: The maximum absorption wavelength of the absorption spectrum in an ethyl acetate solution (concentration 1×10^−6 mol/L; optical path length, 10 mm) of these compounds is shown in Table 1 below.

[3] = Light stability (lightfastness) of thermal transfer images under Xe light; details: Xe light (17000 lux) for 7 days; density retentiveness ratio to original reflection density 1.0; three ranks
Experimental: Next, the recorded thermal transfer image-receiving materials were exposed to an Xe light (17000 lux) for 7 days and tested for the light stability (lightfastness) of the images. After the exposure, the status A reflection density of the part originally having a status A reflection density of 1.0 was measured, and the image stability was indicated by the density retentiveness ratio (percentage) to the original reflection density 1.0 before exposure. The samples were evaluated in three ranks, A (from 80% to less than 100%), B (from 60% to less than 80%), and C (less than 60%).

| SMILES | Solubility [1] | Maximum Absorption Wavelength [2] | Lightfastness [3] | λmax [2] |
| --- | --- | --- | --- | --- |
| CN(C)C(=O)n1c(/N=N/c2c(C(C)(C)C)nn(C)c2N)nc(C#N)c1C#N [(2)] | A | 439 nm | A (A (from 80% to less than 100%)) |  |
| CC(=O)n1c(/N=N/c2c(C(C)(C)C)nn(C)c2N)nc(C#N)c1C#N [(3)] | A | 452 nm | A (A (from 80% to less than 100%)) |  |
| Cn1nc(C(C)(C)C)c(/N=N/c2nc(C#N)c(C#N)n2C(=O)c2ccccc2)c1N [(4)] | A | 454 nm | A (A (from 80% to less than 100%)) |  |
| COC(=O)n1c(/N=N/c2c(C(C)(C)C)nn(C)c2N)nc(C#N)c1C#N [(5)] | A | 451 nm | A (A (from 80% to less than 100%)) |  |
| CC(C)(C)c1nn(-c2ccccc2)c(N)c1/N=N/c1ccc([N+](=O)[O-])cc1 [Comparative Dye 1, reference compound] | B |  | B (B (from 60% to less than 80%)) |  |
| CCN(CC)C(=O)n1c(/N=N/c2ccc(N(CC)CC)cc2NC(C)=O)nc(C#N)c1C#N [Comparative Dye 2, reference compound] | A |  | B (B (from 60% to less than 80%)) |  |

Further lines, results first:

| Solubility [1] | Maximum Absorption Wavelength [2] | Lightfastness [3] | λmax [2] | SMILES |
| --- | --- | --- | --- | --- |
| B |  | C (C (less than 60%)) | 432 nm | Cn1nc(C(C)(C)C)c(/N=N/c2nc(C#N)c(C#N)[nH]2)c1N [Comparative Dye 3, reference compound] |
| A |  | C (C (less than 60%)) |  | CCN(CCOc1ccc(C2CCCCC2)cc1)c1ccc(C=C(C#N)C#N)c(C)c1 [Comparative Dye 4, reference compound] |
| B |  | A (A (from 80% to less than 100%)) |  | CCCCN(CCCC)C(=O)c1ccc2c(c1)C(=O)C(c1nc3ccc(C(C)C)cc3cc1O)C2=O (stereo not drawn) [Comparative Dye 5, reference compound] |
| A | 438 nm | A (A (from 80% to less than 100%)) | 438 nm | CCN(CC)C(=O)n1c(/N=N/c2c(C(C)(C)C)nn(C)c2N)nc(C#N)c1C#N [Compound (1)] |
